Experimental data published in patent publication EP3811940B1, “SUBSTITUTED 4,5'-BITHIAZOLES AS INHIBITORS OF THE HUMAN DNA TOPOISOMERASE II” (Kemijski Institut, priority 2019, dated 2021).
Values joined by “and” are separate entries in the source; they are usually repeats but may differ in a detail not shown here. Equal values may be shown once.

Columns and labels:
human topo IIα = target: T1, human topo IIα (Homo sapiens, UniProt P11388); assay: competitive ATPase assay at different ATP concentrations; format: biochemical
T1 construct: purchased Inspiralis (Norwich, UK)
Experimental: Then, we performed the competitive ATPase assay for compound 1, to investigate how our class of compounds affects the ATP hydrolysis in dependence of ATP concentration. Assay was performed at 8 different concentrations of ATP and compound 1. […] The assay was carried out in two parallels. […] In addition, we also calculated the IC50 values of compound 1 vs. different concentrations of the ATP.
Compound were analyzed using a linked ATPase assay in which the ADP produced by the hydrolysis of ATP leads to the conversion of NADH to NAD by a pyruvate kinase/lactate dehydrogenase mix. The disappearance of NADH was monitored at 340 nm. A mix of the assay buffer (5 µL of 10X buffer per assay: final conc. 20 mM Tris-HCl, 5 mM magnesium acetate, 125 mM potassium acetate, 2 mM DTT, pH 7.9), linear pBR322 (1.5 µL of 1mg/mL per assay), phosphoenol pyruvate (0.5 µL of 80 mM per assay), pyruvate kinase/lactate dehydrogenase mix (0.75 µL per assay), NADH (1 µL of 20 mM per assay), DMSO (1.5 µL per assay), and water (32.85 µL per assay) was made. 41.1 µL of this mixture was aliquoted into the wells of a 384-well microtiter plate. 0.5 µL of DMSO or the investigated compound were added to the wells and mixed. 5 µL of the dilution buffer or human topo IIα (200 nM stock giving the 12 nM final concentration) were then added and mixed. A pre-run was done before the run was started by adding 3.4 µL of the appropriate concentration of ATP and the OD340 monitored for up to 35 minutes. Assays were performed at 37 °C. Two negative controls (4 % DMSO and dilution buffer without enzyme) were run in the presence of 2 mM ATP. This assay was performed at 8 different concentrations of the ATP (0.025, 0.05, 0.075, 0.1, 0.25, 0.5, 0.75 and 1 mM). Assays were performed at 3.9, 31, 50, 75 and 100 µM final concentrations of the investigated compound 1. The final DMSO concentration in all the reactions was 4 % (v/v). Assay was performed in duplicate. The human topo competitive ATPase assay was performed in collaboration with Inspiralis (Norwich, UK).

[1] = target: T2, human topo IIα ATPase domain (Homo sapiens, UniProt P11388); assay: microscale thermophoresis (MST) binding; conditions: three independent runs; initial fluorescence; labelled protein 20 nM
T2 construct: The ATPase fragment with 1-453 amino acid residues was purchase from Inspiralis; purchased Inspiralis
Source text: Figure 2. […] The graph shown is representative of two independent experiments.

HepG2 cells [2] = assay: cell cycle analysis by flow cytometry (Hoechst 33342); format: cell-based, human; conditions: 24h, mean ± SD of 3; for S phase, percent of HepG2 cells: listed as head printed "5" in Table 7
Experimental: (§1) Figure 4. Cell cycle analysis, cell proliferation and induction of the DNA double stand breaks (DBS) by the selected substituted 4,5'-bithiazole compound 1. (A) Percent of HepG2 cells in certain phases of cell cycle after 24h treatment to compound 1 at 50 µM and 10 µM in comparison with the solvent control (0). […] (B) Percent of proliferative cells after 24h treatment to compound 1 at 50 µM and 10 µM determined with the Ki67 antibody. (C) Results of the analyses of the induction of the DNA double strand breaks by γ-H2AX assay. Distribution of the fluorescent signals of individual cells in the samples is shown. Data are presented as quantile box plots. The edges of the box represent the 25th and 75th percentiles, the median is a solid line through the box, and the bars represent 95% confidence intervals. In each sample, 10^4 events were recorded, and experiments were repeated three times independently. Significant difference between treated cells and the solvent control (0) is indicated by * p < 0.05, ** p < 0.01 and *** p < 0.001.
(§2) After the exposure floating and adherent cells were collected by trypsinization. For the fixation the cells were centrifuged at 800 rpm, 4°C for 5 min, washed twice with ice cold PBS, resuspended in 0.5 mL cold PBS and ethanol (1.5 mL) was added drop wise into the cell pellet, while vortexing. The cells were fixed at 4°C overnight and stored at -20°C until analysis. Fixed cells were centrifuged at 1200 rpm for 10 min, washed with ice cold 1× PBS and labelled with Anti-H2AX pS139 antibodies (50-fold diluted) for DNA DBS analysis, Ki67 antibodies (50-fold diluted) for proliferation analysis and Hoechst 33342 dye for cell cycle analysis according to the manufacturer's protocol. Flow cytometric analysis was carried out on a MACSQuant Analyzer 10 (Miltenyi Biotech, Germany). FITC intensity, corresponding to proliferation marker Ki67+, was detected in the FITC-A channel and cell cycle analysis was detected in VioBlueA channel. APC intensity, corresponding to DSBs, was detected in the APC-A channel. Unspecific binding was checked with rea-FITC and rea-APC antibodies (Miltenyi Biotec, Germany). In each sample, 10 000 events were recorded. Independent experiments were repeated three times. […] For further analysis the raw data was exported from MACSQuantify software and it was converted to. fcs format and further to the .csv format. For the yH2AX foci analysis the statistical significance between treated groups and the vehicle control was determined with a linear mixed-effects model. Calculations were done with the statistical program R [49] and its packages reshape and nlme.

HepG2 cells [3] = assay: γ-H2AX assay, induction of DNA double strand breaks; format: cell-based, human; conditions: 24h, result in words
Experimental: as §1, with “The edges of the box represent the 25th and 75th percentiles, the median is a solid line through the box, and the bars represent 95% confidence intervals.” left out, “Significant difference between treated cells and the solvent control (0) is indicated by * p < 0.05, ** p < 0.01 and *** p < 0.001.” left out
After the exposure floating and adherent cells were collected by trypsinization. […] FITC intensity, corresponding to proliferation marker Ki67+, was detected in the FITC-A channel and cell cycle analysis was detected in VioBlueA channel. APC intensity, corresponding to DSBs, was detected in the APC-A channel. […] In each sample, 10 000 events were recorded. […] For the yH2AX foci analysis the statistical significance between treated groups and the vehicle control was determined with a linear mixed-effects model. […]

HepG2 cells [4] = assay: cell proliferation, Ki-67 marker, flow cytometry; format: cell-based, human; conditions: 24h
Experimental: as §2, with “For” for “For further analysis the raw data was exported from MACSQuantify software and it was converted to. fcs format and further to the .csv format. For”, “Calculations were done with the statistical program R [49] and its packages reshape and nlme.” left out

T1 sequence (P11388 whole entry): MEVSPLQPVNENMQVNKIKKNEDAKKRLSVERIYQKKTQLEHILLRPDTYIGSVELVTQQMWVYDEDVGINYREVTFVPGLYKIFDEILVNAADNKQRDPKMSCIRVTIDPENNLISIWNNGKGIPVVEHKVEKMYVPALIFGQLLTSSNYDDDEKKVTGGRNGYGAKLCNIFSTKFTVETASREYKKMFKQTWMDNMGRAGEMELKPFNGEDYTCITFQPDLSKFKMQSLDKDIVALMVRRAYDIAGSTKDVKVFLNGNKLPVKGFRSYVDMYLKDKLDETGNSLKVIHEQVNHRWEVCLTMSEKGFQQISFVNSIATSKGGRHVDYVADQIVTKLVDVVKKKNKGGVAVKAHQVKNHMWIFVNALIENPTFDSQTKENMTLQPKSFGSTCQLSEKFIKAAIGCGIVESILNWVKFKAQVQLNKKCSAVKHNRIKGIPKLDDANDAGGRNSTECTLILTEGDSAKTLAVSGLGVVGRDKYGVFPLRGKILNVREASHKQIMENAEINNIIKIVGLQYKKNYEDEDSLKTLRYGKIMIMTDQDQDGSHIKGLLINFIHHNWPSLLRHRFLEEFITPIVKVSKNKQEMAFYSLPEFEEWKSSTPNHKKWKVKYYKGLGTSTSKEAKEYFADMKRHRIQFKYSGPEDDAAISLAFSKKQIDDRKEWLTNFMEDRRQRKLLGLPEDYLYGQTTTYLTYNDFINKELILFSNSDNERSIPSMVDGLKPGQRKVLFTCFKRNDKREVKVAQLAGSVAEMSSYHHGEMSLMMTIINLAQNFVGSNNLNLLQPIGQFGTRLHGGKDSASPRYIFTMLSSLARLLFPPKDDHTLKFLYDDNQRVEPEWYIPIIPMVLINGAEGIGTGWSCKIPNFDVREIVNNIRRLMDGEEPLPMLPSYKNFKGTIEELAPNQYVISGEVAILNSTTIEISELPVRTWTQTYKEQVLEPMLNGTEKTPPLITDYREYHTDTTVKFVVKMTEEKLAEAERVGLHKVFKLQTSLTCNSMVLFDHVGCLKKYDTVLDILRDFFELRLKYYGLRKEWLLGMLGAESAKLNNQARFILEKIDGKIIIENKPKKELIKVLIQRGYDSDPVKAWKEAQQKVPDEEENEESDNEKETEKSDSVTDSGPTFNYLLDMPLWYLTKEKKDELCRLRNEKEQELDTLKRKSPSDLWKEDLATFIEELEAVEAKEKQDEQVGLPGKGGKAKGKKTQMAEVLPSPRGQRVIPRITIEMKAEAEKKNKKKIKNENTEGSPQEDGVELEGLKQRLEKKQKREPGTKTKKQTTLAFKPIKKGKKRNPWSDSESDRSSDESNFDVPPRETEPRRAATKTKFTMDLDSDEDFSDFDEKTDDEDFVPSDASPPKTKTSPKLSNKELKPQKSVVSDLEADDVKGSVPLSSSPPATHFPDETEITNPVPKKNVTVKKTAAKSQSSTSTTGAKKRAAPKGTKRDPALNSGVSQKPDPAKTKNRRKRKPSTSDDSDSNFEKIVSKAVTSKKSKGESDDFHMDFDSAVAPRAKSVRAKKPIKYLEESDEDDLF
T2 sequence (P11388 1-453): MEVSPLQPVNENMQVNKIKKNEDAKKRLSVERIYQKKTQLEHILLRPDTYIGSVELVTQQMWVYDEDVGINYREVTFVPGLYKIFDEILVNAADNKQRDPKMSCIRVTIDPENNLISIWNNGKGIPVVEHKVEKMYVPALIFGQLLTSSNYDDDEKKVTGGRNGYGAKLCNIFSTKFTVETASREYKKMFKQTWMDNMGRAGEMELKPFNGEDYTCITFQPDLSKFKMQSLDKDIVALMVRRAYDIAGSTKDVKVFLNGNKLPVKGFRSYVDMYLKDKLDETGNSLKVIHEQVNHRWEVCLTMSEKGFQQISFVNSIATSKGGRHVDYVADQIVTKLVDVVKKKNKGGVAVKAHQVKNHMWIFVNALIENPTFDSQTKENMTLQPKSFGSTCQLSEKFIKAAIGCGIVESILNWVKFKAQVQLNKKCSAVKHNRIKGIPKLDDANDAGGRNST

IC50 (human topo IIα; c(ATP) 0.025): 3.8 µM
IC50 (human topo IIα; c(ATP) 0.05): 8.8 µM
IC50 (human topo IIα; c(ATP) 0.075): 14.8 µM
IC50 (human topo IIα; c(ATP) 0.1): 9.4 µM
IC50 (human topo IIα; c(ATP) 0.25): 18.3 µM
IC50 (human topo IIα; c(ATP) 0.5): 15.2 µM
IC50 (human topo IIα; c(ATP) 0.75): 17.8 µM
IC50 (human topo IIα; c(ATP) 1): 21.6 µM
IC50 (human topo IIα; c(ATP) 2): 25.4 µM
Kd [1]: 50.6 ± 7.6 µM
SMILES: Cc1nc(N)sc1-c1csc(Nc2ccc(C(F)(F)F)cc2)n1 [Compound 1, 4'-methyl-N2-(4-(trifluoromethyl)phenyl)-[4,5'-bithiazole]-2,2'-diamine]
>G1, G2<, percent of HepG2 cells (HepG2 cells [2]; 10 µM): 1.2 ± 1.0%
G1 phase, percent of HepG2 cells (HepG2 cells [2]; 10 µM): 56.5% and 56.5 ± 6.4%
G2 phase, percent of HepG2 cells (HepG2 cells [2]; 10 µM): 24.8 ± 4.5%
S phase, percent of HepG2 cells (HepG2 cells [2]; 10 µM): 17.5% and 17.5 ± 1.1^∗∗∗ %
>G1, G2<, percent of HepG2 cells (HepG2 cells [2]; 50 µM): 1.4 ± 0.6%
G1 phase, percent of HepG2 cells (HepG2 cells [2]; 50 µM): 60.6% and 60.6 ± 7.0^∗ %
G2 phase, percent of HepG2 cells (HepG2 cells [2]; 50 µM): 26.2 ± 2.5%
S phase, percent of HepG2 cells (HepG2 cells [2]; 50 µM): 17.5% and 11.8 ± 4.5^∗∗ %
DNA DSB formation (HepG2 cells [3]; 10 µM): no increase
DNA DSB formation (HepG2 cells [3]; 50 µM): no increase
Percent of cell proliferation (Ki-67 positive) (HepG2 cells [4]; 10 µM): 88.6%
Percent of cell proliferation (Ki-67 positive) (HepG2 cells [4]; 50 µM): 81.3%
